The subject of one test is KO-52 cells. In words: Proliferation assay (spheroid assay), KO-52 control cell line. It is filed as cell-based. Particulars: Homo sapiens, 192 h, 8 days; MLL wildtype control cell line; read-out: spheroid assay_KO-52 IC50. On the procedure: (§1) The anti-proliferative effect of menin/MLL protein/protein interaction inhibitor test compounds was assessed in human leukemia cell lines. The cell line MOLM14 harbors a MLL translocation and expresses the MLL fusion protein MLL-AF9, respectively, as well as the wildtype protein from the second allele. OCI-AML3 cells that carry the NPM1c gene mutation were also tested. […] KO-52 was used as a control cell line containing two MLL (KMT2A) wildtype alleles in order to exclude compounds that display general cytotoxic effects.
(§2) MOLM14 cells were cultured in RPMI-1640 (Sigma Aldrich) supplemented with 10% heat-inactivated fetal bovine serum (HyClone), 2 mM L-glutamine (Sigma Aldrich) and 50 μg/ml gentamycin (Gibco). KO-52 and OCI-AML3 cell lines were propagated in alpha-MEM (Sigma Aldrich) supplemented with 20% heat-inactivated fetal bovine serum (HyClone), 2 mM L-glutamine (Sigma Aldrich) and 50 µg/ml gentamycin (Gibco).
In order to assess the anti-proliferative effects, 200 MOLM14 cells, 200° C. […] Spheroid like growth was measured in real-time by live-cell imaging (IncuCyteZOOM, Essenbio, 4× objective) acquiring images at day 8. Confluence (%) as a measure of spheroid size was determined using an integrated analysis tool.
In order to determine the effect of the test compounds over time, the confluence in each well as a measure of spheroid size, was calculated. […]

Another test deals with MOLM14 cells. Kind of test: Proliferation assay (spheroid assay), MOLM14. It is filed as cell-based. The settings on record: Homo sapiens, MOLM-14, 192 h, 8 days; read-out: spheroid assay_MOLM14 IC50. The procedure: as §1, §2
In order to assess the anti-proliferative effects, 200 MOLM14 cells, […] or 300 KO-52 cells were seeded in 200 μl media per well in 96-well round bottom, ultra-low attachment plates (Costar, catalogue number 7007). Cell seeding numbers were chosen based on growth curves to ensure linear growth throughout the experiment. Test compounds were added at different concentrations and the DMSO content was normalized to 0.3%. Cells were incubated for 8 days at 37° C. and 5% CO2. Spheroid like growth was measured in real-time by live-cell imaging (IncuCyteZOOM, Essenbio, 4× objective) acquiring images at day 8. Confluence (%) as a measure of spheroid size was determined using an integrated analysis tool.
In order to determine the effect of the test compounds over time, the confluence in each well as a measure of spheroid size, was calculated. Confluence of the highest dose of a reference compound was used as baseline for the LC (Low control) and the confluence of DMSO treated cells was used as 0% cytotoxicity (High Control, HC).
Absolute IC50 values were calculated as percent change in confluence as follows: • LC=Low Control: cells treated with e.g. […] of the cytotoxic agent staurosporin, or e.g. cells treated with a high concentration of an alternative reference compound • HC=High Control: Mean confluence (%) (DMSO treated cells)
GraphPad Prism (version 7.00) was used to calculate the IC50. Dose-response equation was used for the plot of % Effect vs Log 10 compound concentration with a variable slope and fixing the maximum to 100% and the minimum to 0%.

For another test, the system named is MEIS1 mRNA expression. Kind of test: MEIS1 mRNA expression assay (Quantigene Singleplex) in MOLM14. It is filed as cell-based. Particulars: Homo sapiens, MOLM-14, 48 h, MOLM14 cells, 48 hours with compound. The procedure: 2b) MEIS1 mRNA Expression Assay
MEIS1 mRNA expression upon treatment of compound was examined by Quantigene Singleplex assay (Thermo Fisher Scientific). This technology allows for direct quantification of mRNA targets using probes hybridizing to defined target sequences of interest and the signal is detected using a Multimode plate reader Envision (PerkinElmer). The MOLM14 cell line was used for this experiment. Cells were plated in 96-well plates at 3,750 cells/well in the presence of increasing concentrations of compounds. After incubation of 48 hours with compounds, cells were lysed in lysis buffer and incubated for 45 minutes at 55° C. Cell lysates were mixed with human MEIS1 specific capture probe or human RPL28 (Ribosomal Protein L28) specific probe as a normalization control, as well as blocking probes. Cell lysates were then transferred to the custom assay hybridization plate (Thermo Fisher Scientific) and incubated for 18 to 22 hours at 55° C. Subsequently, plates were washed to remove unbound materials followed by sequential addition of preamplifiers, amplifiers, and label probe. Signals (=gene counts) were measured with a Multimode plate reader Envision. IC50s were calculated by dose-response modelling using appropriate software. For all non-housekeeper genes response equal counts corrected for background and relative expression. For each sample, each test gene signal (background subtracted) was divided by the normalization gene signal (RPL28: background subtracted). Fold changes were calculated by dividing the normalized values for the treated samples by the normalized values for the DMSO treated sample. Fold changes of each target gene were used for the calculation of IC50s.

The next test has as its system MOLM-13 tumors. In words: Efficacy (survival) in disseminated MOLM-13 (KMT2A-rearranged) model in NSG mice. The settings on record: NSG mice bearing established MOLM-13 tumors, vs vehicle; Azacitidine 2 mg/kg ip QD × 7; Compound 51 2 mg/kg po QD × 28; n = 10. It is filed as in vivo. On the procedure: 4) Efficacy of Menin-MLL Inhibitor in Combination with Azacitidine in MOLM-13 (KMT2A-Rearranged) Model in NSG Mice
Compound 51 was formulated in purified pyrogen-free deionized water, pH 4.0 and prepared to reach a total volume of 8 mL/kg. Doses were adjusted by individual body weight each day. Working stocks of Compound 51 were prepared once per week for each study and stored at 25° C.
Female NSG (NOD.Cg-Prkdc^scid Il2rg^tm1Wjl/SzJ) mice were used when they were approximately 6 to 8 weeks of age and weighed approximately 25 g. All animals could acclimate and recover from any shipping-related stress for a minimum of 7 days prior to experimental use. […]
Animals were monitored daily for clinical signs related to either compound toxicity or tumor burden (i.e., hind limb paralysis, lethargy, etc.).
For survival assessment, results were plotted as the percentage survival against days post tumor implant. […] Median survival was determined utilizing Kaplan-Meier survival analysis. The percent increased life span (ILS) was calculated as: ((median survival day of treated group−median survival day of control group)/median survival day of control group)×100. […]
Survival and body weight data were graphically represented utilizing Prism (Version 9). Statistical significance for body weights was evaluated as described above. […]

Consider `CC(=O)N1CCC(CN2CCC(Cc3cn(-c4ccc(F)cc4C(=O)N(C)C(C)C)c4cncc(C)c34)C2)CC1` (single isomer, unassigned) [Compound 50], for which the IC50 is 2300 nM in the test on KO-52 cells, 39 nM in the test on MOLM14 cells and 89 nM in the test on MEIS1 mRNA expression.
Turning to `Nc1ncn([C@@H]2O[C@H](CO)[C@@H](O)[C@H]2O)c(=O)n1` [Azacitidine, azacitidine, reference compound], the “% ILS (increased life span)” value in the test on MOLM-13 tumors is given as “*37%”.

Values taken from patent US20260191835A1, “COMBINATIONS COMPRISING A MENIN-MLL INHIBITOR AND AT LEAST ONE OTHER THERAPEUTIC AGENT” (JANSSEN PHARMACEUTICA NV, priority 2022, published 2026).
